This note sets out measurements from US11939290B2, “Heterocycle-containing amino acid compound and salt thereof, complex, composition, fertilizer and plant growth regulator” (TOKUSHIMA UNIVERSITY, priority 2018, dated 2024).

SMILES strings stand for the structures.

The data set can be described thus: Stability test in acidic aqueous solution (1H NMR residual rate). To be noted: for residual rate, lapsed day 0 / residual rate, lapsed day 10 / residual rate, lapsed day 20 / residual rate, lapsed day 27: acidic aqueous solution in heavy water; for residual rate, lapsed day 0: pH 2.0, 0 day (immediately after preparation); for residual rate, lapsed day 10 / residual rate, lapsed day 20 / residual rate, lapsed day 27: pH 2.0, stored at 25° C. sealed, protected from light; for residual rate, lapsed day 10: 10 days; for residual rate, lapsed day 20: 20 days; for residual rate, lapsed day 27 / stability in an acidic aqueous solution compared with derivatives (X), (X′) and (Y): 27 days; for stability in an acidic aqueous solution compared with derivatives (X), (X′) and (Y): acidic aqueous solution pH 2, 25° C. In kind it is physicochemical. On the procedure: In this stability test, whether acidic aqueous solutions prepared using the derivatives (X), (X′) and (Y), and 2′-deoxymugineic acid (DMA) and a compound having the following structure (hereinafter, referred to as “PDMA”) were stable along with the lapse of time, i.e., whether the derivatives were difficult to decompose was evaluated.
The following test solutions (a), (b) and (c) were prepared using the derivatives (X), (X′) and (Y). Also, the following test solutions (d) and (e) were prepared using DMA and PDMA. The test solution (a) was prepared by dissolving 3 μmol of the substance in 0.5 mL of heavy water. Other test solutions were prepared by dissolving 0.03 mmol of the substance in 0.5 mL of heavy water. The pH of the test solution was 2. • Test solution (a) for Test Example 1: acidic aqueous solution of the derivative (X) • Test solution (b) for Test Example 2: acidic aqueous solution of the derivative (X′) • Test solution (c) for Test Example 3: acidic aqueous solution of the derivative (Y) • Test solution (d) for Referential Example 1: acidic aqueous solution of DMA • Test solution (e) for Referential Example 2: acidic aqueous solution of PDMA
An NMR measuring tube (manufactured by Kanto Chemical Co., Inc., φ5 mm×7 inch) was filled with each of the test solutions (a) to (e), and ^1H NMR measurement was performed. ^1H NMR was measured immediately after (0 day), 10 days after, 20 days after, and 27 days after the preparation of the test solution. The test solutions were stored at room temperature (25° C.) in a sealed state in which they were placed in the NMR measuring tubes, while being protected from light.
Attention was paid to 4.4 ppm (1H, q) for DMA, 4.4 ppm (1H, q) for PDMA, 4.3 ppm (1H, dd) for the derivative (X), 4.3 ppm (1H, dd) for the derivative (X′), and 4.3 ppm (1H, dd) for the derivative (Y) in the resulting ^1H NMR spectrum. […] On the other hand, in the case of the test solutions (d) and (e), peaks derived from decomposition products of DMA and PDMA were detected with the lapse of the storage time. The chemical shifts of the peaks were 4.5 ppm (t, 1H) for DMA and 4.5 ppm (1H, t) for PDMA. Thus, from the integrated values, the residual rate of DMA or PDMA after 10, 20, and 27 days was calculated based on the following calculation formula (see Table 1 and FIG. 1):
(Integrated value of measured compound)/{(integrated value of measured compound)+(integrated value of decomposition product)}×100

For the compound `O=C(O)C(O)CCNC(CCN1CCCC1C(=O)O)C(=O)O` (stereo not shown) [PDMA], the “residual rate, lapsed day 0” value came to 100%; the “residual rate, lapsed day 10” value stood at 68.4%; the “residual rate, lapsed day 20” value amounted to 61.7%; the “residual rate, lapsed day 27” value amounted to 55.2%. Moreover, the “stability in an acidic aqueous solution compared with derivatives (X), (X′) and (Y)” value is reported as “inferior”.

Consider `O=C(O)C(O)CCNC(CCN1CCC1C(=O)O)C(=O)O` (stereo not shown) [DMA, 2′-deoxymugineic acid], for which the “residual rate, lapsed day 0” value turned out to be 100%; the “residual rate, lapsed day 10” value is given as 77.3%; the “residual rate, lapsed day 20” value came out at 68.2%; the “residual rate, lapsed day 27” value was found to be 59.3%. In addition, the “stability in an acidic aqueous solution compared with derivatives (X), (X′) and (Y)” value is reported as “inferior”.
